Laboratory results reported in PubChem BioAssay AID652108 (The Scripps Research Institute Molecular Screening Center, 2013).

What was measured:
Experiment in all cases: PubChem AID 652108
Conditions in all cases: mouse tail flick latency, kappa agonist-induced antinociception
1 hour = test system: 1 hour
1 week = test system: 1 week
24 hours = test system: 24 hours

## COC(=O)c1cc(Br)cnc1N1CCC(NC2CCCCC2)C(O)C1 (configuration not stated)
1 hour
  tail flick latency: 8.07 s
1 hour; baseline latency at 0 min
  tail flick latency: 4.68 s
1 hour; latency at 30 min
  tail flick latency: 6.04 s
1 hour; latency at 60 min
  tail flick latency: 4.2 s
1 week
  tail flick latency: 12 s
1 week; baseline latency at 0 min
  tail flick latency: 3.47 s
1 week; latency at 30 min
  tail flick latency: 8.5 s
1 week; latency at 60 min
  tail flick latency: 3.25 s
24 hours
  tail flick latency: 13.4 s
24 hours; baseline latency at 0 min
  tail flick latency: 4.23 s
24 hours; latency at 30 min
  tail flick latency: 9.11 s
24 hours; latency at 60 min
  tail flick latency: 5.2 s
